We go through nine compounds from US7235554B2, “3-heteroaryl-3,5-dihydro-4-oxo-4H-pyridazino[4,5-b] indole-1-acetamide derivatives, preparation and use thereof in medicaments” (Sanofi-Aventis, priority 2002, dated 2007).

`CN(C)C(=O)Cc1nn(-c2cccnc2)c(=O)c2c1c1ccc(F)cc1n2C.Cl`: the melting point was 244 to 250 °C.
The same measure for `CN(C)C(=O)Cc1nn(-c2ccncc2)c(=O)c2c1c1ccc(F)cc1n2C.Cl`: 267 to 270 °C; for `CN(C)C(=O)Cc1nn(-c2cccnc2)c(=O)c2c1c1ccc(Cl)cc1n2C.Cl`: 250 to 252 °C; for `CN(C)C(=O)Cc1nn(-c2ccncc2)c(=O)c2c1c1ccc(Cl)cc1n2C.Cl`: 275 to 279 °C.
The same measure for `CN(C)C(=O)Cc1nn(-c2ccccn2)c(=O)c2c1c1ccc(F)cc1n2C` [Compound 1, 7-fluoro-N,N,5-trimethyl-4-oxo-3-(pyridin-2-yl)-3,5-dihydro-4H-pyridazino[4,5-b]indole-1-acetamide]: 222 to 223 °C; for `CN(C)C(=O)Cc1nn(-c2ccccn2)c(=O)c2c1c1ccc(Cl)cc1n2C` [Compound 4, 7-chloro-N,N,5-trimethyl-4-oxo-3-(pyridin-2-yl)-3,5-dihydro-4H-pyridazino[4,5-b]indole-1-acetamide]: 183 to 184 °C; for `CN(C)C(=O)Cc1nn(-c2cccnc2)c(=O)c2c1c1ccc(Cl)cc1n2C` [Compound 5, 7-chloro-N,N,5-trimethyl-4-oxo-3-(pyridin-3-yl)-3,5-dihydro-4H-pyridazino[4,5-b]indole-1-acetamide]: 255 to 256 °C.
The result for `Cc1ccc(-n2nc(CC(=O)N(C)C)c3c4ccc(Cl)cc4n(C)c3c2=O)cn1` [Compound 8, 7-chloro-N,N,5-trimethyl-4-oxo-3-(6-methylpyridin-3-yl)-3,5-dihydro-4H-pyridazino[4,5-b]indole-1-acetamide] reads 253 to 255 °C; that for `CCN(CC)C(=O)Cc1nn(-c2cccnc2)c(=O)c2c1c1ccc(Cl)cc1n2C` [Compound 9, 7-chloro-N,N-diethyl-5-methyl-4-oxo-3-(pyridin-3-yl)-3,5-dihydro-4H-pyridazino[4,5-b]indole-1-acetamide], 199 to 200 °C.
